The results in this text go back to patent US20170168056A1, “METHODS AND COMPOSITIONS FOR DETECTING AND MODULATING CANCER CELLS” (Massachusetts Institute of Technology, priority 2015, published 2017).

Common to all, as to type: cell-based, human
For one test, the system named is T47D cells. The test can be described thus: Cell viability of T47D cells expressing ShCtrl or ShMENA after paclitaxel. As to conditions: T47D ShMENA vs ShCtrl, 72 hours. How it is done: Cell Culture. MDA-MB-231 cells were purchased directly from the ATCC in June 2012, where cell lines are authenticated by short tandem repeat profiling. These cells were not reauthenticated by our lab and were cultured in DMEM with 10% FBS (Hyclone). Cell line generation and FACS were performed as previously described (32). […] SUM159 cells were obtained from Joan Brugge's lab at Harvard Medical School (January 2011) and were not reauthenticated in our lab. SUM159 cells were cultured according to the ATCC protocols. T47D cells were purchased at ATCC, where cell lines are authenticated by short tandem repeat profiling. They were cultured according to the manufacturer's protocol, and not reauthenticated in our lab. […]
MENA and MENA^INV are associated with increased survival during paclitaxel treatment in vitro. […] MENA and MENA^INV were determined to be widely expressed in all main breast cancer subtypes, as measured by mRNA from TCGA samples, as well as at the protein level by immunohistochemistry (FIGS. 28A, 28B, 28C), with slightly higher expression in patients with Her2+ breast cancer. […] Under the conditions we used, MENA11a co-migrates with the 80 kDa MENA, thus the intensity of the measured the 80 kDa MENA, detected with an antibody known to recognize all MENA isoforms, represents the total amount of 80 kDa MENA plus MENA11a in the cell lines that express both isoforms. […]

The subject of another test is Mena. The test can be described thus: Mena expression in cultured cells after taxane treatment (Western blot, FACS of GFP). How it is done:
Taxol treatment induces increased Mena protein expression in vitro and in vivo. As high level of Mena or Mena^INV expression correlated with low response to Taxo, we hypothesized that Taxol treatment might affect Mena expression. […]. After 72 h of treatment with the drug, the expression level of Mena was 70% higher than in vehicle-treated cells.
Western blot. Cells were lysed in 25 mM Tris, 150 mM NaCl, 10% glycerol, 1% NP 40 and […] EDTA with a protease Mini-complete protease inhibitors (Roche) and a phosphatase inhibitor cocktail (PhosSTOP, Roche) at 4° C. for 20 minutes. Protein lysates were separated by SDS-PAGE, transferred to a nitrocellulose membrane and blocked with Odyssey Blocking Buffer (LiCor). Membranes were incubated with primary antibody overnight at 4° C. and Licor secondary antibodies at room temperature for 1 hour. Protein level intensity was measured with Image J.
Paclitaxel treatment selects for high MENA expression in vitro and in vivo. The Examples so far indicate that increased MENA or MENA^INV expression levels are associated with reduced responses to paclitaxel. The effect of paclitaxel treatment on levels of MENA expression in cell populations in vitro and in vivo was examined. First, endogenous MENA expression by Western Blot in 5 breast cancer cell lines that were exposed to 100 nM of paclitaxel or a vehicle control were analyzed (FIG. 33A).

The test system of another test is MDA-MB-231 cells. The test can be described thus: In vitro imaging of cell velocity on collagen. To be noted: 231-Control, 231-MENA, 231-MENA^INV; paclitaxel 1, 10 or 100 nM. How it is done:
In vitro imaging. Glass bottom dishes were coated with Co11agen at 0.1 mg/mL diluted in PBS for 1 hour at 37° C. Cells expressing different MENA isoform were treated with paclitaxel at 1, 10 or 100 nM or vehicle and immediately plated on the glass bottom dishes. 30 minutes later, cells were imaged overnight, with one image acquired every 10 minutes for 16 hours on a Nikon spinning disk with a 20× objective and an Andor/NeoZyla camera. Individual cells were manually tracked using ImageJ and Manual Tracking plug-in. Data were analyzed using the chemotaxis tool developed by IBIDI. For analysis of time spent in cell division, the time between when the mother cell first rounds up, to when both daughter cells have spread out on substrate was measured. The percentage of successful cell divisions was quantified by counting the number of cell divisions that lead to two surviving daughter cells. Data are pooled from at least 50 cells tracked in three independent experiments.
MENA and MENA^INV drive increased cell motility and metastasis during tumor progression. Therefore, whether MENA isoform expression impacts cell migration and dissemination after paclitaxel treatment was examined.

As to `CC(=O)O[C@H]1C(=O)[C@@]2(C)[C@H]([C@H](OC(=O)c3ccccc3)[C@]3(O)C[C@H](OC(=O)[C@H](O)[C@@H](NC(=O)c4ccccc4)c4ccccc4)C(C)=C1C3(C)C)[C@]1(OC(C)=O)CO[C@@H]1C[C@@H]2O` [paclitaxel], the “sensitivity to paclitaxel after reducing all MENA isoform levels” value in the test on T47D cells was “more sensitive to paclitaxel”. Also, the “endogenous MENA expression by Western Blot” value in the test on Mena (5 breast cancer cell lines, 100 nM paclitaxel, 72 hours, vs vehicle) was “some cell lines (MDA-MB-231 and MDA-MB-175VII) showed increased MENA expression”. Further, the “FACS analysis of GFP expression levels after taxane treatment” value with Mena (MDA-MB-231 populations expressing GFP, GFP-MENA or GFP-MENA^INV) was “selected for high-Mena^INV-GFP expressing cells”. Also, the “expression level of Mena higher than in vehicle-treated cells” value with Mena (after 72 h of treatment) came out at 70%. For the same compound, the “cell velocity in vitro” value in the test on MDA-MB-231 cells is recorded as “decreased velocity”.
